# Values joined by “and” are separate entries in the source; they are usually repeats but may differ in a detail not shown here. Equal entries are not always repeated. Structures can show the parent of a compound that is named as a salt.
# Legend:
# [1] = test system: Staphylococcus aureus MW2 (mecA+); test: IC50 (growth, competition assay); conditions: cefoxitin: subinhibitory
# How it was run: (§1)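 Signals from DsRed (540/590) and GFP (485/520) were scaled on every plate between single-strain control medians, with No Treatment then set to 0.5. The cells were a 1:1 mix of pre-induced fluorescent S. aureus MW2 strains with and without the resistance gene, grown unshaken for 20 h at 37 °C and 90% humidity in LB in 1536-well plates under a subinhibitory drug dose set each day. Each strain's IC50 was defined as the dose halving the No Treatment signal, or the maximal signal.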
# [2] = test system: Staphylococcus aureus MW2 delta-mecA (mecA-); test: IC50 (growth, competition assay); conditions: cefoxitin: subinhibitory
# How it was run: as §1
Structure (SMILES),IC50 ([1]; fluorescent label: DsRed),IC50 ([1]; fluorescent label: GFP),IC50 ([2]; fluorescent label: DsRed),IC50 ([2]; fluorescent label: GFP)
O=C1NC(c2cccc([N+](=O)[O-])c2)=CCN1c1ccccc1O [Icilin],63.3 µM,54.4 µM,19.3 µM,25.5 µM
CCn1cc(C(=O)O)c(=O)c2ccc(C)nc21 [Nalidixic acid sodium],34 µM,29.8 µM,17.2 µM,16.2 µM
C[C@H]1[C@H](C)CC[C@]2(C(=O)O)CC[C@]3(C)C(=CC[C@@H]4[C@@]5(C)C[C@@H](O)[C@H](O)[C@@](C)(CO)[C@@H]5CC[C@]43C)[C@H]12 [ASIATIC ACID],109 µM,> 150 µM,123 µM,115 µM
CC(C)(C)c1cc(C=C(C#N)C#N)cc(C(C)(C)C)c1O [Tyrphostin A9],< 9.85 µM,26 µM,35.4 µM,< 9.85 µM
COc1ccc(Cl)cc1NC(=O)Nc1cc(C)nc2ccccc12 [PQ 401],24.3 µM,17.9 µM,10.6 µM,12.3 µM
N#Cc1cc([N+](=O)[O-])c2sc(C(N)=O)[n+]([O-])c2c1 [BTO-1],19.5 µM,18.9 µM,< 9.85 µM,< 9.85 µM
O=C1C=C2C(=CCOC2O)O1 (stereo unspecified) [PATULIN],18.9 µM,26.9 µM,< 9.85 µM,< 9.85 µM
O=[N+]([O-])c1ccc2c(c1)S(=O)(=O)C=C2 [Stattic],35.8 µM and 35.3 µM,35.4 µM and 56.2 µM,25.7 µM and 16.6 µM,13.6 µM and < 9.85 µM
COc1cc(/C=C/C(=O)CC(=O)/C=C/c2ccc(O)c(OC)c2)ccc1O [Curcumin],34.7 µM,53.8 µM,4.13 µM,3.73 µM
Nc1ccn([C@@H]2O[C@H](CO)[C@@H](O)C2(F)F)c(=O)n1 [Gemcitabine hydrochloride],< 9.85 µM,< 9.85 µM,< 9.85 µM,< 9.85 µM
O=C1OC(CN2CCOCC2)CN1/N=C/c1ccc([N+](=O)[O-])o1 (stereo unspecified) [FURALTADONE],17.8 µM,15.1 µM,11.4 µM,18.5 µM
CO/N=C(\C(=O)N[C@@H]1C(=O)N2C(C(=O)O)=C(CSc3nc(=O)c(O)nn3C)CS[C@H]12)c1csc(N)n1 [ROCEPHIN],> 150 µM,> 150 µM,< 9.85 µM,< 9.85 µM
O=C(O)c1nn(Cc2ccc(Cl)cc2Cl)c2ccccc12 [Lonidamine],27.7 µM,78.2 µM,22.4 µM,15 µM
CCn1nc(C(=O)O)c(=O)c2cc3c(cc21)OCO3 [CINOBAC],> 150 µM,115 µM,108 µM,125 µM
Oc1ccc(Cl)cc1Cc1cc(Cl)ccc1O [DICHLOROPHEN],< 9.85 µM,< 9.85 µM,< 9.85 µM,< 9.85 µM
"c1ccc2c(Cc3c[nH]c4ccccc34)c[nH]c2c1 [3,3'-DIINDOLYLMETHANE]",67.4 µM,105 µM,21.7 µM,21.4 µM
CC[C@H](C)C(=O)O[C@H]1C[C@H](O)C=C2C=C[C@H](C)[C@H](CC[C@@H](O)C[C@@H](O)CC(=O)O)[C@H]21 [Pravastatin sodium],28.8 µM,27.8 µM,< 9.85 µM,< 9.85 µM
CCCCCCCCCCCCCCCC[N+](C)(C)CCN(Cc1ccc(OC)cc1)c1ncccn1 [THONZIDE],< 9.85 µM,14.9 µM,< 9.85 µM,< 9.85 µM
COC1=C(OC)C(=O)C(CCCCCCCCCCO)=C(C)C1=O [IDEBENONE],22.8 µM,28.8 µM,15.5 µM,15 µM
OC(CNCC(O)C1CCc2cc(F)ccc2O1)C1CCc2cc(F)ccc2O1 (stereo unspecified) [Nebivolol],108 µM,111 µM,35 µM,19.6 µM
O=C(O)c1ccccc1Nc1cccc(C(F)(F)F)c1 [ARLEF],17.2 µM,19 µM,< 9.85 µM,24.8 µM
CCn1cc(C(=O)O)c(=O)c2cc3c(cc21)OCO3 [Oxolinic acid],18.3 µM,16.1 µM,15.1 µM,14.6 µM

Structure (SMILES),IC50 ([1]; fluorescent label: DsRed),IC50 ([1]; fluorescent label: GFP),IC50 ([2]; fluorescent label: DsRed),IC50 ([2]; fluorescent label: GFP)
Cc1cc(O)c(C(=O)N[C@@H](C(=O)N[C@@H]2C(=O)N3C(C(=O)O)=C(CSc4nnnn4C)CS[C@H]23)c2ccc(O)cc2)cn1 [CEFPIRAN],< 9.85 µM,< 9.85 µM,< 9.85 µM,< 9.85 µM
OCc1ccc(-c2ccc(-c3ccc(CO)s3)o2)s1,22.4 µM,33.5 µM,< 9.85 µM,< 9.85 µM
CO/N=C(\C(=O)N[C@@H]1C(=O)N2C(C(=O)O)=C(COC(C)=O)CS[C@H]12)c1csc(N)n1 [Cefotaxime sodium],< 9.85 µM,< 9.85 µM,< 9.85 µM,< 9.85 µM
COc1cc(Cc2cnc(N)nc2N)cc(OC)c1OC [TRIMPEX],< 9.85 µM,< 9.85 µM,< 9.85 µM,< 9.85 µM
CC(=O)OCC(=O)[C@H]1CC[C@H]2[C@@H]3CCC4=CC(=O)CC[C@]4(C)[C@H]3CC[C@]12C [PERCOTEN],144 µM,62.6 µM,26.6 µM,> 150 µM
CCOC(=O)C1=C(C)NC(C)=C(C(=O)OC)C1c1cccc(Cl)c1Cl (stereo unspecified) [Felodipine],27.8 µM,32.3 µM,< 9.85 µM,< 9.85 µM
COc1cc2ncnc(Nc3ccc(Oc4ccccc4)cc3)c2cc1OC [Src I1],29 µM,30.7 µM,30.6 µM,25.3 µM
CCn1cnc2c(Nc3cccc(Cl)c3)nc(N[C@@H]3CCCC[C@@H]3N)nc21,65.8 µM,78.3 µM,15.2 µM,17 µM
CCCCCCCc1ccc(CCc2cccc(O)c2C(=O)O)cc1 [MG 149],13.6 µM,14.5 µM,< 9.85 µM,< 9.85 µM
CCn1cc(C(=O)O)c(=O)c2cc3c(cc21)OCO3 [UTIBID],15.5 µM,15 µM,15.2 µM,< 9.85 µM
CO/N=C(\C(=O)N[C@@H]1C(=O)N2C(C(=O)O)=C(CSC(=O)c3ccco3)CS[C@H]12)c1csc(N)n1 [EXCENEL],< 9.85 µM,< 9.85 µM,< 9.85 µM,< 9.85 µM
CO/N=C(\C(=O)N[C@@H]1C(=O)N2C(C(=O)O)=C(CSc3nc(=O)c(O)nn3C)CS[C@H]12)c1csc(N)n1 [Ceftriaxone sodium],14.9 µM,14.9 µM,< 9.85 µM,< 9.85 µM
Oc1cc2c(cc1O)CN(C(=S)NCCc1ccc(Cl)cc1)CCC2 [Capsazepine],59.4 µM,111 µM,34.5 µM,36.1 µM
Cc1cc(C2CCCCC2)n(O)c(=O)c1 [Ciclopirox (Penlac)],19 µM,30.1 µM,29.7 µM,29.5 µM
Cc1cc(C(C)(C)CC(C)(C)C)ccc1OCCOCC[N+](C)(C)Cc1ccccc1 [DELAVAN],< 9.85 µM,< 9.85 µM,< 9.85 µM,< 9.85 µM
O=c1cc(-c2ccc(O)c(O)c2)oc2cc(O)cc(O)c12 [Luteolin],57 µM,56.6 µM,27.6 µM,20 µM
CN1CCN(C2Cc3ccccc3Sc3ccc(Cl)cc32)CC1 (stereo unspecified) [(?)-Octoclothepin maleate],73.8 µM,61.8 µM,< 9.85 µM,29.3 µM
CNCc1ccc(C)c(NC(=O)c2ccc(Nc3nc(-c4ccccc4)c4ccccc4n3)cc2)c1,15.9 µM,14.5 µM,< 9.85 µM,< 9.85 µM
Cc1c(O)c(O)cc2c1CC=C1[C@@]2(C)CC[C@@]2(C)[C@@H]3C[C@](C)(C(=O)O)CC[C@]3(C)CC[C@]12C [DIHYDROCELASTROL],< 9.85 µM,< 9.85 µM,< 9.85 µM,< 9.85 µM
NC[C@H]1O[C@H](O[C@H]2[C@H](O)[C@@H](O[C@H]3O[C@H](CO)[C@@H](O)[C@H](N)[C@H]3O)[C@H](N)C[C@@H]2N)[C@H](N)C[C@@H]1O [Tobramycin],16 µM,27.6 µM,32 µM,33.8 µM
"O=Nc1ccc2oc(=O)ccc2c1 [6-Nitroso-1,2-benzopyrone]",53.1 µM,57.9 µM,31 µM,32.1 µM
COc1ncc(-c2ccc3nccc(-c4ccnnc4)c3c2)cc1NS(=O)(=O)c1ccc(F)cc1F,< 9.85 µM,< 9.85 µM,< 9.85 µM,< 9.85 µM

Structure (SMILES),IC50 ([1]; fluorescent label: DsRed),IC50 ([1]; fluorescent label: GFP),IC50 ([2]; fluorescent label: DsRed),IC50 ([2]; fluorescent label: GFP)
Oc1ccc2ccccc2c1SSc1c(O)ccc2ccccc12 [IPA-3],< 9.85 µM,< 9.85 µM,< 9.85 µM,< 9.85 µM
CN1CCN(c2cc3c(cc2F)c(=O)c(C(=O)O)cn3-c2ccc(F)cc2)CC1 [DICURAL],< 9.85 µM,< 9.85 µM,< 9.85 µM,< 9.85 µM
CC(=O)NC[C@H]1CN(c2ccc(N3CCOCC3)c(F)c2)C(=O)O1 [ZYVOX],< 9.85 µM,< 9.85 µM,< 9.85 µM,< 9.85 µM
C=CC(=O)Nc1cccc(Sc2nc(Nc3ccc(N4CCN(C)CC4)cc3)ncc2Cl)c1 [WZ8040],17.1 µM,28.9 µM,2.02 µM,2.67 µM
O=C(O[C@@H]1Cc2c(O)cc(O)cc2O[C@@H]1c1ccc(O)c(O)c1)c1cc(O)c(O)c(O)c1 [EPICATECHIN MONOGALLATE],83.7 µM,140 µM,22.9 µM,12.2 µM
CCOC(=O)CCC(=O)O[C@H]1[C@H](O[C@@H]2[C@@H](C)[C@H](O[C@H]3C[C@@](C)(OC)[C@@H](O)[C@H](C)O3)[C@@H](C)C(=O)O[C@H](CC)[C@@](C)(O)[C@H](O)[C@@H](C)C(=O)[C@H](C)C[C@@]2(C)O)O[C@H](C)C[C@@H]1N(C)C [ERYPED],< 9.85 µM,< 9.85 µM,< 9.85 µM,< 9.85 µM
O=c1c2ccccc2[se]n1-c1ccccc1 [EBSELEN],< 9.85 µM,< 9.85 µM,< 9.85 µM,< 9.85 µM
CC(=O)N1CCN(c2ccc(OCC3COC(Cn4ccnc4)(c4ccc(Cl)cc4Cl)O3)cc2)CC1 (stereo unspecified) [KETOZOLE],112 µM,132 µM,50.6 µM,32.2 µM
Cc1cc(N)c2ccccc2[n+]1CCCCCCCCCC[n+]1c(C)cc(N)c2ccccc21 [FLUOMIZIN],13.2 µM,12.2 µM,< 9.85 µM,< 9.85 µM
CC(=O)Oc1cc2c(c(C)c1OC(C)=O)CC=C1[C@@]2(C)CC[C@@]2(C)C3C[C@](C)(C(=O)O)CC[C@]3(C)CC[C@]12C (stereo partly specified) [DIHYDROCELASTRYL DIACETATE],< 9.85 µM,< 9.85 µM,< 9.85 µM,< 9.85 µM
CCN(CC)C(=S)SSC(=S)N(CC)CC [ANTABUSE],31.7 µM,33.4 µM,12.3 µM,11.1 µM
CC1(C)S[C@@H]2[C@H](NC(=O)[C@H](N)c3ccccc3)C(=O)N2[C@H]1C(=O)O [Ampicillin sodium],< 9.85 µM,15.1 µM,< 9.85 µM,< 9.85 µM
CC1(C)S[C@@H]2[C@H](NC(=O)C(C(=O)O)c3ccccc3)C(=O)N2[C@H]1C(=O)O (stereo partly specified) [CARBECIN],23.7 µM,36.6 µM,< 9.85 µM,< 9.85 µM
O=C(O)c1cn(C2CC2)c2cc(N3CCNCC3)c(F)cc2c1=O [CIPRO],< 9.85 µM,< 9.85 µM,< 9.85 µM,< 9.85 µM
Cc1cc2c(C(C)C)c(O)c(O)c(C=O)c2c(O)c1-c1c(C)cc2c(C(C)C)c(O)c(O)c(C=O)c2c1O [GOSSYPOL],< 9.85 µM,< 9.85 µM,< 9.85 µM,< 9.85 µM
CN(C)c1ccc(C(=C2C=CC(=[N+](C)C)C=C2)c2ccc(N(C)C)cc2)cc1 [GVS],< 9.85 µM,< 9.85 µM,< 9.85 µM,< 9.85 µM
CC(=O)NC[C@H]1CN(c2ccc(N3CCOCC3)c(F)c2)C(=O)O1 [Linezolid (Zyvox)],2.31 µM,2.83 µM,0.992 µM,< 0.498 µM
Cc1sc2c(c1C)C(c1ccc(Cl)cc1)=N[C@@H](CC(=O)OC(C)(C)C)c1nnc(C)n1-2 [(+)-JQ1],96.8 µM,112 µM,47 µM,35.2 µM
Oc1c(I)cc(I)c2cccnc12 [IOQUIN],20.7 µM,17.8 µM,< 9.85 µM,< 9.85 µM
COC(=O)C1=C(C)NC(C)=C(C(=O)OC)C1c1cccc(NC(=O)NCCCN2CCC(c3cccc(OC)c3)CC2)c1,45.5 µM,54.8 µM,18.2 µM,13.4 µM
